{
  "source": "patent US20030129664A1",
  "about": "“Novel Assays” (priority 1999, published 2003)",
  "key": {"parental HEK-293 cells": {"system": "parental HEK-293 cells", "experiment": "FLIPR calcium assay in control cells (non-transfected HEK-293, other receptors or Gαqi5 alone)", "type": "cell-based", "settings": "cells transfected with other receptors or Gαqi5 alone", "procedure": "A functional assay was performed with FLIPR using the fluorescent calcium indicator dye Fluo-3 (Molecular Probes) on a 96 well platform. HEK-293 cells, either expressing the receptor with the chimeric G protein (Gαqi5) or wild type cells were loaded with Fluo-3 as follows. Stable HEK-293 clones expressing RP-23 receptor with Gαqi5and/or cells expressing RP-23R alone, or parental cells were plated at a density of 70,000 cells/well in a 96 well plate. On the day of the experiment, the RP-23 receptor expressing cells were loaded with fluorescent solution (Dulbecco's modified medium with 10% fetal bovine serum containing 4 μM Fluo-3 and […] pluronic acid). The cells were incubated at 37° C. for one hour in a humidified chamber. Following the incubation, cells were Washed five times in Hanks' with 20 mM Hepes and 0.1% BSA (pH 7.4). The cells were analyzed using the FLIPR system to measure the mobilization of intracellular calcium in response to different compounds.\nHEK-293 cells that endogenously express some GPCRs such as PACAP receptors can be used as an internal control for assays. Background signal was established with all of the compounds in the parental HEK-293 cells (non-transfected) or parental HEK-293 cells transfected with Gαqi5 chimeric protein using the FLIPR assay. […]"}, "RP-23 receptor": {"molecular_target": "T1, RP-23 receptor (Mus musculus, UniProt P30731)", "T1 construct": "expressed in transfected cells; G418 and hygromycin selection", "T1 sequence (P30731 18-423)": "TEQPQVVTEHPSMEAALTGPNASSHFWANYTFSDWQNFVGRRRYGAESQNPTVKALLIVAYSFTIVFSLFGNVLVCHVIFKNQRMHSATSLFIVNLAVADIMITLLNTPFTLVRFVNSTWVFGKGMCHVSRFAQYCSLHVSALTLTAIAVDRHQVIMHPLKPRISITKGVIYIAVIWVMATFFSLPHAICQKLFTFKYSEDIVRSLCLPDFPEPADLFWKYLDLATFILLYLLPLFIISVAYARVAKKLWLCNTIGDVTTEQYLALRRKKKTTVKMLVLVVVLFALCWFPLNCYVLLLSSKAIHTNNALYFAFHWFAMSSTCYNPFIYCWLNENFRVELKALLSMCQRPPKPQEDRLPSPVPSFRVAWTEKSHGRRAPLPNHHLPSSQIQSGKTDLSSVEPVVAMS", "experiment": "FLIPR functional assay of intracellular calcium mobilization (Fluo-3) in HEK-293 cells expressing RP-23 receptor with Gαqi5", "type": "cell-based", "procedure": "The RP-23 gene (Harrigan et al., Molecular Endocrinol. 5:1331-1338 (1991)) was obtained and used to generate a mammalian expression vector. Specifically, 40 μg of RP-23 receptor DNA was digested with 100 units of EcoRI enzyme (Pharmacia) (Lambda ZAP II) at 37 degrees C., isolated on a 1% agarose gel and subcloned into the Eco RI site of pcDNA 3.0 (InVitrogen, San Diego, Calif.). The expression vector so produced was called pcDNA 3.0-RP-23. Plasmid DNA was prepared using the Qiaprep system from Qiagen.\nHEK-293 cells were transfected with pcDNA 3.0-RP-23 using the calcium-phosphate method and subsequently transfected with DNA encoding a chimeric G protein (Gαqi5). This is Gq alpha with the C-terminal amino acids changed from EYNLV to DCGLF. The entire protein was subcloned in an expression vector (pCEP, Molecular Devices). […] The presence of mRNA specific for clone RP-23 was assessed by Northern Blot Analysis and by the reverse transcriptase polymerase chain reaction (RT-PCR). […]\nA functional assay was performed with FLIPR using the fluorescent calcium indicator dye Fluo-3 (Molecular Probes) on a 96 well platform. […] The cells were analyzed using the FLIPR system to measure the mobilization of intracellular calcium in response to different compounds."}},
  "data": [
    {"smiles": "CCCCCCCCCCCCC/C=C/[C@@H](O)[C@@H](N)COP(=O)(O)O", "note": "[sphingosine-1-PO4]", "values": [
      {"measurement": "dose-response relationship of calcium response in control cells", "setting": "parental HEK-293 cells", "value": "not in non-transfected cells or in cells transfected with other receptors or Gαqi5 alone"},
      {"measurement": "calcium response (FLIPR signal) compared to control cells", "setting": "RP-23 receptor; HEK-293 cells expressing RP-23 receptor and Gαqi5 chimeric protein, compounds dissolved at 3 μM, compared with parental HEK-293 and HEK-293 transfected with Gαqi5", "value": "consistently elicited a significant signal"},
      {"measurement": "dose-response relationship of calcium response", "setting": "RP-23 receptor; cells transfected with RP-23 and Gαqi5", "value": "dose-response relationship"}
    ]}
  ]
}
